39 molecules from US20070179161A1, “Pyrazolopyrimidine compounds and their use in medicine” (VERNALIS (CAMBRIDGE) LIMITED., priority 2003, published 2007) can be followed below.

Holding throughout (assay type): biochemical
Assay [1] addresses CDK-2 enzyme, complexed with cyclin A (Homo sapiens, UniProt P24941). Briefly: CDK2 enzyme inhibition assay (33P phosphorylation of peptide […], filter plate). To be noted: CDK-2/cyclin A, 0.1 mM ATP, 40 min at 30° C. As to the method: (§1) The assay mixture containing the inhibitor and CDK-2 enzyme, complexed with cyclin A (0.4 U/ml) was mixed together in a microtiter plate in a final volume of 50 μl and incubated for 40 min at 30° C. The assay mixture contained 0.1 mM unlabeled ATP, 0.01 μCi/μl ^33P-γ-ATP, 0.03 mM peptide, 0.1 mg/ml BSA, 7.5 mM magnesium acetate, 50 mM HEPES-NaOH, pH 7.5. The reaction was stopped by adding 50 μl of 50 mM phosphoric acid. 90 μl of the mixture were transferred to a pre-wetted 96-well Multiscreen MAPHNOB filtration plate (Millipore) and filtered on a vacuum manifold. […] The filtration plate was dried for 10 min at 65° C., scintillant added and phosphorylated peptide quantified in a scintillation counter (Trilux, PerkinElmer)
HEPES is N-[2-Hydroxyethyl]piperazine-N′-[2-ethanesulfonic acid] BSA is bovine serum albumin.

Another assay deals with T1, PDK1 enzyme (Homo sapiens, UniProt O15530).
T1 sequence (O15530 1-556): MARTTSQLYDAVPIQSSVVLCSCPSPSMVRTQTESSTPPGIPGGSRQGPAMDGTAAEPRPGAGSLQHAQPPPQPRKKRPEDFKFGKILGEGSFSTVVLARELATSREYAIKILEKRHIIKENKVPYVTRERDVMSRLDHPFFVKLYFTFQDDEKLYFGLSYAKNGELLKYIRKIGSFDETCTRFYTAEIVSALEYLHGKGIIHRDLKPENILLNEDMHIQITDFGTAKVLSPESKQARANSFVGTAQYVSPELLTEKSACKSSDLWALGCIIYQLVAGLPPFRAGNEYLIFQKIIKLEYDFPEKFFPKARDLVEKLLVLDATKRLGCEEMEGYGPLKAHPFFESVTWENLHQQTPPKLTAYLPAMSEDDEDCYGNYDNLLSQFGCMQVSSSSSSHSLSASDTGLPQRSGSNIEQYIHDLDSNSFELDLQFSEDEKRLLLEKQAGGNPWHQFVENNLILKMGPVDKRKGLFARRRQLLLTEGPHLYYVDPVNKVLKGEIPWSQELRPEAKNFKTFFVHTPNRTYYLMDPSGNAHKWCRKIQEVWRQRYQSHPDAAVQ
Briefly: PDK1 kinase inhibition assay (33P phosphorylation of synthetic peptide, filter plate). To be noted: 0.01 mM ATP, 60 min at 30° C.; read-out: PDK1 IC50. As to the method:
as §1, with “and PDK1 enzyme” for “and CDK-2 enzyme, complexed with cyclin A (0.4 U/ml)”, “for 60” for “for 40”, “contained 0.01” for “contained 0.1”, “^33P-γ-ATP, 0.075” for “^33P-γ-ATP, 0.03”, “acetate, 0.05M Tris.HCl,” for “acetate, 50 mM HEPES-NaOH,”, “pH 7.5, 0.5% 2-mercaptoethanol.” for “pH 7.5.”

The target in a further assay is T2, GST-Chk1 enzyme (Homo sapiens, UniProt O14757).
T2 sequence (O14757 1-476): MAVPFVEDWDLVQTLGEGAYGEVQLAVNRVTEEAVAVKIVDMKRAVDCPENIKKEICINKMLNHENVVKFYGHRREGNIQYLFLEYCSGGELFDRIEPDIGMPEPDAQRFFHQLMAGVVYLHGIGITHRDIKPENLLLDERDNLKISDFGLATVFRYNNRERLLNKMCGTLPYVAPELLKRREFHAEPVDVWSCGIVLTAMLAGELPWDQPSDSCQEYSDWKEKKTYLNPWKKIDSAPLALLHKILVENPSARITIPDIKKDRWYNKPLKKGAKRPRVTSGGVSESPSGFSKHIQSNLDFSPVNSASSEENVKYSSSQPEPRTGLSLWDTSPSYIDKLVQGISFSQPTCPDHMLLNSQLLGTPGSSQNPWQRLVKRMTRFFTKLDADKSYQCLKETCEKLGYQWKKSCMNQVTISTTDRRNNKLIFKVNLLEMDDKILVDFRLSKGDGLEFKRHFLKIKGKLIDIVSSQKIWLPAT
Briefly: Chk1 kinase inhibition assay (33P phosphorylation of Chktide, filter plate). To be noted: 0.01 mM ATP, 11 nM GST-Chk1, 40 minutes at 30° C.; read-out: Chk1 IC50. As to the method: The assay mixture containing the inhibitor and Chk1 enzyme was mixed together in a microtiter plate in a final volume of 50 μl and incubated for 40 minutes at 30° C.
The reaction was stopped by adding 50 μl of 50 mM phosphoric acid. 90 μl of the mixture was transferred to a pre-wetted 96-well Multiscreen MAPHNOB filtration plate (Millipore) and filtered on a vacuum manifold. […] The filtration plate was dried for 10 min at 65° C., scintillant added and phosphorylated peptide quantified in a scintillation counter (Trilux, PerkinElmer)

Consider `Clc1cccc(Nc2cc(Cl)nc3c(Br)cnn23)c1` [Example 160], for which, in assay [1], the IC50 (usually the concentration that gives 50% inhibition) stood at 0.108 µM.
Regarding `CC(C)c1cnn2c(Nc3ccc(S(=O)(=O)N(C)C)cc3)cc(N[C@H]3CC[C@@H](N)CC3)nc12` [Example 116], the IC50 at PDK1 enzyme was found to be 0.536 µM; on GST-Chk1 enzyme it was 2.19 µM.
`CC(C)c1cnn2c(NC3CCN(S(=O)(=O)C(C)C)CC3)cc(Cl)nc12` [Example 159] displayed an IC50 in assay [1] of 1.17 µM.
On to `CC1(C)CC(Nc2cc(Nc3ccc(S(=O)(=O)N4CCCC4)cc3)n3ncc(Br)c3n2)CC(C)(C)N1` [Example 179], for which the IC50 worked out at 4.54 µM at PDK1 enzyme and 24 µM in assay [1].
For the molecule `N[C@H]1CC[C@H](Nc2cc(Nc3ccc(Oc4cccnc4)cc3)n3ncc(Cl)c3n2)CC1` [Example 189], inhibition in assay [1] was half-maximal at 0.028 µM (IC50).
On to `O=S(=O)(c1ccccc1)c1ccc(Nc2cc(N[C@H]3CC[C@H](O)CC3)nc3c(Br)cnn23)cc1` [Example 182], for which the IC50 was 3 µM at PDK1 enzyme and 0.248 µM in assay [1].
With `CCc1cnn2c(Nc3ccc(C(=O)NCCN(CC)CC)cc3)cc(Cl)nc12` [Example 152], the results for the IC50 (on GST-Chk1 enzyme; in assay [1]) were 32 µM and 0.79 µM, respectively.
As for `CN(C)S(=O)(=O)c1ccc(Nc2cc(N[C@H]3CC[C@H](N)CC3)nc3ccnn23)cc1` [Example 169], the concentration for half-maximal inhibition (IC50) worked out at 3.36 µM on PDK1 enzyme and 0.098 µM in assay [1].
For `CS(=O)(=O)c1ccc(Nc2ccnc3ccnn23)cc1` [Example 19] the same measures were > 200 µM and 10.4 µM.
In the case of `CC(C)c1cnn2c(Nc3ccc(S(=O)(=O)N(C)C)cc3)cc(C(=O)N3CCC(CN)CC3)nc12` [Example 131], the IC50 in assay [1] is 9.37 µM.
The same measure, in the same setting: to `CN(C)S(=O)(=O)c1ccc(Nc2cc(N[C@H]3CC[C@@H](N)CC3)nc3c(S(C)(=O)=O)cnn23)cc1` [Example 200] belongs 11.2 µM.
For the molecule `CNCCNC(=O)c1cc(Nc2ccc(S(=O)(=O)N(C)C)cc2)n2ncc(C(C)C)c2n1` [Example 155], the IC50 turned out to be 53 µM at GST-Chk1 enzyme and 0.142 µM in assay [1].
Take `CCc1cnn2c(Nc3ccc(S(=O)(=O)N4CCCC4)cc3)cc(Cl)nc12` [Example 142]: the IC50 was > 200 µM on PDK1 enzyme and 0.066 µM in assay [1].
Regarding `CN(C)S(=O)(=O)c1ccc(Nc2cc(O[C@H]3CC[C@H](N)CC3)nc3c(Br)cnn23)cc1` [Example 158], the IC50 in assay [1] came to 0.005 µM.
Regarding `O=S(=O)(c1ccc(Nc2cc(N[C@H]3CC[C@H](O)CC3)nc3c(Br)cnn23)cc1)N1CCCC1` [Example 176], the IC50 at PDK1 enzyme came to 3.25 µM; in assay [1], 0.183 µM.
For `CS(=O)(=O)c1ccc(Nc2cc(Cl)nc3c(Br)cnn23)cc1` [Example 144] the same measures were > 50 µM and 0.23 µM.
In the case of `O=S(=O)(c1ccccc1)c1ccc(Nc2cc(Cl)nc3c(Br)cnn23)cc1` [Example 136], the IC50 was 16 µM at PDK1 enzyme and 0.204 µM in assay [1].
The corresponding values for `CCc1cnn2c(Nc3ccc(S(=O)(=O)N(C)C)cc3)cc(NC3CC(C)(C)NC(C)(C)C3)nc12` [Example 175] are 12.9 µM and 22.2 µM.
With `CN(C)S(=O)(=O)c1ccc(Nc2cc(O[C@@H]3CCNC3)nc3c(Cl)cnn23)cc1` [Example 195], the IC50 at GST-Chk1 enzyme turned out to be 7.79 µM; in assay [1] it was 0.24 µM.
For the molecule `CC(C)c1cnn2c(Nc3ccc(S(=O)(=O)N(C)C)cc3)cc(C(=O)N3CCC(N)CC3)nc12` [Example 123], the IC50 at GST-Chk1 enzyme was > 200 µM; in assay [1], 1.34 µM.
For `N[C@H]1CC[C@@H](Nc2cc(Nc3ccc(S(=O)(=O)Nc4nccs4)cc3)n3ncc(Br)c3n2)CC1` [Example 177], at PDK1 enzyme, the IC50 stood at 0.66 µM.
Regarding `N[C@H]1CC[C@H](Nc2cc(Nc3ccc(S(=O)(=O)c4ccccc4)cc3)n3ncc(Br)c3n2)CC1` [Example 137], the IC50 at PDK1 enzyme was 1.06 µM; at GST-Chk1 enzyme, 0.717 µM.
`CC(C)c1cnn2c(NC3CCN(C(=O)OC(C)(C)C)CC3)cc(Cl)nc12` [Example 153] had an IC50 in assay [1] of 3.44 µM.
The same measure, in the same setting: with `O=S(=O)(c1ccc(Nc2cc(Cl)nc3c(Cl)cnn23)cc1)c1cccs1` [Example 188] the figure was 0.089 µM.
As for `CC(C)c1cnn2c(Nc3ccc(S(=O)(=O)N(C)C)cc3)cc(N[C@H]3CC[C@H](N)CC3)nc12` [Example 30, 3-isopropyl-5-(trans-4-aminocyclohexylamino)-7-(4-(N,N-dimethylsulphonamido)phenylamino)pyrazolo[1,5-a]pyrimidine], the IC50 on PDK1 enzyme was found to be 19.9 µM; on GST-Chk1 enzyme it was 5.51 µM.
For `Brc1cccc(-c2cc(NCc3ccncc3)n3nccc3n2)c1` [Example 3] the same measures were 34.6 µM and 29.6 µM.
Molecule `CC(C)c1cnn2c(Nc3ccc(S(=O)(=O)N(C)CCN(C)C)cc3)cc(Cl)nc12` [Example 68] displayed an IC50 in assay [1] of 0.052 µM.
The same measure, in the same setting: to `CC(C)c1cnn2c(Nc3ccc(S(=O)(=O)N(C)C)cc3)cc(N3CCC(N)C3)nc12` (stereo not shown) [Example 129] belongs 1.97 µM; to `CNC(=O)C1CCN(C(=O)c2cc(Nc3ccc(S(=O)(=O)N(C)C)cc3)n3ncc(C(C)C)c3n2)CC1` [Example 133], 5.17 µM.
The same measure, in the same setting: to `N[C@H]1CC[C@H](Nc2cc(Nc3ccc(Oc4ccc(F)cc4)cc3)n3ncc(Cl)c3n2)CC1` [Example 190] belongs 0.046 µM; to `Clc1cc(NCc2ccncc2)n2ncc(Br)c2n1` [Example 161], 0.23 µM.
As for `CC(C)c1cnn2c(Nc3ccc(S(=O)(=O)N(C)C)cc3)cc(CN3CCC(O)CC3)nc12` [Example 170], the IC50 on PDK1 enzyme is > 200 µM; in assay [1] it was 1.8 µM.
For `CCc1cnn2c(Nc3ccc(S(=O)(=O)Nc4nccs4)cc3)cc(Cl)nc12` [Example 151] the same measures were 38 µM and 0.11 µM.
The corresponding values for `CC(C)c1cnn2c(Nc3ccc(S(N)(=O)=O)cc3)cc(N[C@H]3CC[C@H](N)CC3)nc12` [Example 134] are 4.43 µM and 0.026 µM.
In assay [1], `CC(C)c1cnn2c(Nc3ccc(S(=O)(=O)N(C)C)cc3)cc(C(=O)N3CCC(N4CCCC4)CC3)nc12` [Example 130] returned an IC50 of 12.2 µM.
On the same count and under the same terms, to `CC(C)c1cnn2c(Nc3ccc(S(=O)(=O)N(C)C)cc3)cc(CO)nc12` [Example 146] belongs 0.546 µM.
As for `CC(C)c1cnn2c(Nc3ccc(S(=O)(=O)N(C)C)cc3)cc(N[C@H]3CCCC[C@H]3N)nc12` [Example 132], the IC50 at PDK1 enzyme stood at 10.4 µM; in assay [1] it was 3.63 µM.
In the case of `CC(C)c1cnn2c(Nc3ccc(S(=O)(=O)N(C)C)cc3)cc(Cl)nc12` [Example 27], the midpoint of inhibition in assay [1], the IC50, lay at 0.24 µM.
Regarding `CN1CCN(S(=O)(=O)c2ccc(Nc3cc(Cl)nc4c(Br)cnn34)cc2)CC1` [Example 139], the results for the 50% inhibitory concentration (IC50) (on PDK1 enzyme; in assay [1]) were > 50 µM and 0.176 µM, respectively.
